Test results: patent publication US20240391936A1, “TETRAHYDROTHIENO PYRIDINE DERIVATIVES AS DDRS INHIBITORS” (CHIESI FARMACEUTICI S.P.A., priority 2021, published 2024)

Key:
DDR2 = molecular target: T1, DDR2 (Homo sapiens, UniProt Q16832); test: DDR2 binding assay (LanthaScreen Europium Kinase Binding assay); set-up: purchased Life Technologies; conditions: binding assay, 5 nM DDR2, 10 nM Kinase Tracer 178; Ki from IC50 by Cheng-Prusoff; read-out: Ki DDR2
T1 sequence (Q16832 22-855): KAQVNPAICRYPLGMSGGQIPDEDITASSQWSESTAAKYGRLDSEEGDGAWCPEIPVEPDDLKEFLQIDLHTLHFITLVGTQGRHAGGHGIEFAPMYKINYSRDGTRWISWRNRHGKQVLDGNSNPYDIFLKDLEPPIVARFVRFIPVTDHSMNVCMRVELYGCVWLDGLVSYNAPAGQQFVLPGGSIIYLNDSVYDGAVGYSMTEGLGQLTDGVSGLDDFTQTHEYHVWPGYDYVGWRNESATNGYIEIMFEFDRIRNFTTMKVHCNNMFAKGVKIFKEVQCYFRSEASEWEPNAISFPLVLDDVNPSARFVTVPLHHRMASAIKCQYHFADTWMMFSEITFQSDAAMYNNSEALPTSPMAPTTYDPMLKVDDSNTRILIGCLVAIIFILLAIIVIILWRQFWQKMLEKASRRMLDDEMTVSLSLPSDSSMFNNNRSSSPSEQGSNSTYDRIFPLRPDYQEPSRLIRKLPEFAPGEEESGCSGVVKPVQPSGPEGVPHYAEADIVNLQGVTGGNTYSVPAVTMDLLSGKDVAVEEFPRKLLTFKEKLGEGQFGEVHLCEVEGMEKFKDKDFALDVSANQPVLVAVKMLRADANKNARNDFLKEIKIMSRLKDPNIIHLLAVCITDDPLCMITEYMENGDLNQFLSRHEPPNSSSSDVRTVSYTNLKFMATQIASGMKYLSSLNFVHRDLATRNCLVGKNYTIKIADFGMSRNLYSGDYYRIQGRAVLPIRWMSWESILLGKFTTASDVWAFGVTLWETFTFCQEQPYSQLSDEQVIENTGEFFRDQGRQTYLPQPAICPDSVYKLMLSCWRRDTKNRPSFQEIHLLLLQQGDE
Experimental: (§1) DDR1 and DDR2 binding assays were performed using Life Technologies LanthaScreen™ Europium Kinase Binding assay. The compounds were incubated with 5 nM DDR1 (Carna Biosciences) or 5 nM DDR2 (Life Technologies) for 1 hour at room temperature in white 384-well OptiPlate (PerkinElmer), containing 20 nM or 10 nM Kinase Tracer 178 respectively and 2 nM Europium labelled anti-GST antibody (Life Technologies) in assay buffer (50 mM HEPES pH 7.5, 10 mM MgCl2, 1 mM EGTA and 0.01% BRIJ35).
(§2) The ratio of fluorescence emission 665 nm/615 nm after excitation at 340 nm was obtained using the Tecan Spark 20M plate reader. IC50 values were determined in GraphPad Prism 7.0 software, using 4 parameter model: log(inhibitor) vs. response. IC50 values were converted in Ki using the Cheng-Prusoff equation

DDR1 [1] = molecular target: T2, DDR1 (Homo sapiens, UniProt Q08345); test: DDR1 binding assay (LanthaScreen Europium Kinase Binding assay); set-up: purchased Carna Biosciences; conditions: binding assay, 5 nM DDR1, 20 nM Kinase Tracer 178; Ki from IC50 by Cheng-Prusoff; read-out: Ki DDR1
T2 sequence (Q08345 19-913): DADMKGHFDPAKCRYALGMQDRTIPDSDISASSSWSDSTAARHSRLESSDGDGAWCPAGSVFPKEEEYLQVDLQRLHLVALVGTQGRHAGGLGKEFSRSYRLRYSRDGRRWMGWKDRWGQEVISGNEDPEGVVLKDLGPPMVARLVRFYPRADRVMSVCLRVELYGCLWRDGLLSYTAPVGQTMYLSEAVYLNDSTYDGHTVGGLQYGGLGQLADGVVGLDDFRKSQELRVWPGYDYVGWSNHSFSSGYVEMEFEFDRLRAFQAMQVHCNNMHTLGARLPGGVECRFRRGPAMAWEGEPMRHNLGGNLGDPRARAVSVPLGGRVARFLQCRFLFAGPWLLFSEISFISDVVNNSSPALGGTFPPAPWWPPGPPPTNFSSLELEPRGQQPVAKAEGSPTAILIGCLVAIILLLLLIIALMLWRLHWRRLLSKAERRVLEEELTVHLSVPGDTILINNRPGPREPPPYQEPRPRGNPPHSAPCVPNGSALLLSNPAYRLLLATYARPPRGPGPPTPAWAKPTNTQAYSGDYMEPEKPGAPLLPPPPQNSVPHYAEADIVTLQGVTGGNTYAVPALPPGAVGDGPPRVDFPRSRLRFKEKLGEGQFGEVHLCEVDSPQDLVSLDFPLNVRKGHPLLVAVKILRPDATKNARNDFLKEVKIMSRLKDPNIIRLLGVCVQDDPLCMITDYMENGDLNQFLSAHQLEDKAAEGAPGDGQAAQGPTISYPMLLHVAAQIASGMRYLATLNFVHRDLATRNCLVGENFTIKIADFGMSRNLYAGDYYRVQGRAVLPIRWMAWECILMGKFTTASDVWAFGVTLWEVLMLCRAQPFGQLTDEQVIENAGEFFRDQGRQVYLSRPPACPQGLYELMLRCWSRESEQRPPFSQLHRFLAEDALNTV
Experimental: as §1, §2

DDR1 [2] = molecular target: T2, DDR1; test: DDR1 cell based assay (PathHunter U2OS DDR1 assay); set-up: host or cells: U2OS-DDR1 (PathHunter); conditions: U2OS-DDR1 cells, bovine Type II Collagen 20 μg/ml
Experimental: The inhibition of DDR1 receptor activation by compounds was evaluated by PathHunter® U2OS DDR1 assay (Eurofins DiscoverX), according to the manufacturer's instructions. Briefly, U2OS-DDR1 cells were seeded in white 384-well plates at a density of 5000 cells/well and incubated for 2 hours at 37° C. and 5% CO2. Cells were then treated with compounds at different concentrations and incubated for 30 minutes, before stimulation with bovine Type II Collagen 20 μg/ml and incubation overnight at 37° C. and 5% CO2. PathHunter Detection Reagents were prepared according to the protocol provided by DiscoverX and 20 μl/well of this mix were added to each well. After incubating the plates for 1 hour at room temperature in the dark, luminescence signal was acquired with a plate reader. Raw data were normalized to vehicle control (0% for normalization) and positive control (100% for normalization; cells treated with 20 μg/ml collagen II) and IC50 parameters were calculated in GraphPad Prism 8.0 software, using sigmoidal dose-response curve fitting with variable slope.

| SMILES | Ki (DDR2) [nM] | Ki (DDR1 [1]) [nM] | IC50 (DDR1 [2]) [nM] |
| --- | --- | --- | --- |
| CC(C)(C)c1cc(NC(=O)c2csc3c2CCN(C(=O)c2cnc4ccccn24)C3)on1 [Example 34, N-(3-(tert-butyl)isoxazol-5-yl)-6-(imidazo[1,2-a]pyridine-3-carbonyl)-4,5,6,7-tetrahydrothieno[2,3-c]pyridine-3-carboxamide] | < 25 | < 25 | < 25 |
| Cn1nc(C2CCC2)cc1NC(=O)c1csc2c1CCN(C(=O)c1cnc3ccccn13)C2 [Example 35, N-(3-cyclobutyl-1-methyl-1H-pyrazol-5-yl)-6-(imidazo[1,2-a]pyridine-3-carbonyl)-4,5,6,7-tetrahydrothieno[2,3-c]pyridine-3-carboxamide] | < 25 | < 25 | 25 to 50 |
| CC(C)c1cc(NC(=O)c2csc3c2CCN(C(=O)c2cnc4ccccn24)C3)n(C)n1 [Example 36, 6-(imidazo[1,2-a]pyridine-3-carbonyl)-N-(3-isopropyl-1-methyl-1H-pyrazol-5-yl)-4,5,6,7-tetrahydrothieno[2,3-c]pyridine-3-carboxamide] | < 25 | < 25 | 50 to 80 |
| CC(C)(C)c1cc(NC(=O)c2csc3c2CCN(C(=O)c2cnc4ccccn24)C3)ccn1 [Example 37, N-(2-(tert-butyl)pyridin-4-yl)-6-(imidazo[1,2-a]pyridine-3-carbonyl)-4,5,6,7-tetrahydrothieno[2,3-c]pyridine-3-carboxamide] | < 25 | < 25 | 25 to 50 |
| CC(C)n1nc(C(C)(C)C)cc1NC(=O)c1csc2c1CCN(C(=O)c1cnc3ccccn13)C2 [Example 38, N-(3-(tert-butyl)-1-isopropyl-1H-pyrazol-5-yl)-6-(imidazo[1,2-a]pyridine-3-carbonyl)-4,5,6,7-tetrahydrothieno[2,3-c]pyridine-3-carboxamide] | < 25 | < 25 | 25 to 50 |
| CCCc1cc(NC(=O)c2csc3c2CCN(C(=O)c2cnc4ccccn24)C3)n(C)n1 [Example 39, 6-(imidazo[1,2-a]pyridine-3-carbonyl)-N-(1-methyl-3-propyl-1H-pyrazol-5-yl)-4,5,6,7-tetrahydrothieno[2,3-c]pyridine-3-carboxamide] | < 25 | < 25 | 25 to 50 |
| CC(C)(C)c1cc(NC(=O)c2csc3c2CCN(C(=O)c2cnc4ccccn24)C3)n(CC(F)(F)F)n1 [Example 40, N-(3-(tert-butyl)-1-(2,2,2-trifluoroethyl)-1H-pyrazol-5-yl)-6-(imidazo[1,2-a]pyridine-3-carbonyl)-4,5,6,7-tetrahydrothieno[2,3-c]pyridine-3-carboxamide] | < 25 | < 25 | 25 to 50 |
| CC(C)(C)c1cc(NC(=O)c2csc3c2CCN(C(=O)c2cnc4ccccn24)C3)n(Cc2ccccc2)n1 [Example 41, N-(1-benzyl-3-(tert-butyl)-1H-pyrazol-5-yl)-6-(imidazo[1,2-a]pyridine-3-carbonyl)-4,5,6,7-tetrahydrothieno[2,3-c]pyridine-3-carboxamide] | < 25 | < 25 | 25 to 50 |
| CCn1nc(C(C)(C)C)cc1NC(=O)c1csc2c1CCN(C(=O)c1cnc3ccccn13)C2 [Example 42, N-(3-(tert-butyl)-1-ethyl-1H-pyrazol-5-yl)-6-(imidazo[1,2-a]pyridine-3-carbonyl)-4,5,6,7-tetrahydrothieno[2,3-c]pyridine-3-carboxamide] | < 25 | < 25 | 50 to 80 |
| CC(C)Cc1cc(NC(=O)c2csc3c2CCN(C(=O)c2cnc4ccccn24)C3)n(C)n1 [Example 43, 6-(imidazo[1,2-a]pyridine-3-carbonyl)-N-(3-isobutyl-1-methyl-1H-pyrazol-5-yl)-4,5,6,7-tetrahydrothieno[2,3-c]pyridine-3-carboxamide] | < 25 | < 25 | 25 to 50 |
| CN(C)[C@H]1CCN(Cc2cc(NC(=O)c3csc4c3CCN(C(=O)c3cnc5ccccn35)C4)cc(C(F)(F)F)c2)C1 [Example 44, (S)-N-(3-((3-(dimethylamino)pyrrolidin-1-yl)methyl)-5-(trifluoromethyl)phenyl)-6-(imidazo[1,2-a]pyridine-3-carbonyl)-4,5,6,7-tetrahydrothieno[2,3-c]pyridine-3-carboxamide] | < 25 | < 25 | 25 to 50 |
| CN(C)[C@@H]1CCN(Cc2cc(NC(=O)c3csc4c3CCN(C(=O)c3cnc5ccccn35)C4)cc(C(F)(F)F)c2)C1 [Example 45, (R)-N-(3-((3-(dimethylamino)pyrrolidin-1-yl)methyl)-5-(trifluoromethyl)-phenyl)-6-(imidazo[1,2-a]pyridine-3-carbonyl)-4,5,6,7-tetrahydrothieno[2,3-c]pyridine-3-carboxamide] | < 25 | < 25 | 25 to 50 |
| CC(C)(C)c1coc(NC(=O)c2csc3c2CCN(C(=O)c2cnc4ccccn24)C3)n1 [Example 47, N-(4-(tert-butyl)oxazol-2-yl)-6-(imidazo[1,2-a]pyridine-3-carbonyl)-4,5,6,7-tetrahydrothieno[2,3-c]pyridine-3-carboxamide] | < 25 | < 25 | 25 to 50 |
| CN(C)C1CCN(Cc2cc(NC(=O)c3csc4c3CCN(C(=O)c3cnc5ccccn35)C4)cc(C(F)(F)F)c2)CC1 [Example 48, N-(3-((4-(dimethylamino)piperidin-1-yl)methyl)-5-(trifluoromethyl)phenyl)-6-(imidazo[1,2-a]pyridine-3-carbonyl)-4,5,6,7-tetrahydrothieno[2,3-c]pyridine-3-carboxamide] | 25 to 50 | < 25 | 50 to 80 |
| O=C(Nc1cc(CN2CCC23COC3)cc(C(F)(F)F)c1)c1csc2c1CCN(C(=O)c1cnc3ccccn13)C2 [Example 49, N-(3-((6-oxa-1-azaspiro[3.3]heptan-1-yl)methyl)-5-(trifluoromethyl)phenyl)-6-(imidazo[1,2-a]pyridine-3-carbonyl)-4,5,6,7-tetrahydrothieno[2,3-c]pyridine-3-carboxamide] | < 25 | < 25 | < 25 |
| O=C(Nc1cc(CN2CC3CC2CO3)cc(C(F)(F)F)c1)c1csc2c1CCN(C(=O)c1cnc3ccccn13)C2 (stereo not drawn) [Example 50, N-(3-((2-oxa-5-azabicyclo[2.2.1]heptan-5-yl)methyl)-5-(trifluoromethyl)phenyl)-6-(imidazo[1,2-a]pyridine-3-carbonyl)-4,5,6,7-tetrahydrothieno[2,3-c]pyridine-3-carboxamide] | < 25 | < 25 | 25 to 50 |
| O=C(Nc1cc(CN2CCC(F)C2)cc(C(F)(F)F)c1)c1csc2c1CCN(C(=O)c1cnc3ccccn13)C2 (stereo not drawn) [Example 51, N-(3-((3-fluoropyrrolidin-1-yl)methyl)-5-(trifluoromethyl)phenyl)-6-(imidazo[1,2-a]pyridine-3-carbonyl)-4,5,6,7-tetrahydrothieno[2,3-c]pyridine-3-carboxamide] | < 25 | < 25 | 25 to 50 |
